According to patent US9061997B2, “Quinolinone derivatives” (Centre National de la Recherche Scientifique, priority 2010, dated 2015):
Where two headings read alike, the source gives them in different places.

Legend:
C3H10T1/2 cells [1] = experiment: Enzymatic assay of alkaline phosphatase in 96-well plates (differentiation of C3H10T1/2 cells); assay type: cell-based; conditions: for EC50 / Emax: Mus musculus
Protocol: (§1) The effect of the compounds of general formula (I) in accordance with the invention on the stimulation of osteogenesis was determined in vitro by analyzing the differentiation of the C3H10T1/2 pluripotent mesenchymal cell line.
(§2) The test compounds of formula (I) were dissolved in dimethyl sulfoxide (DMSO) to a concentration of 2.5 mM, and then stored at a temperature of −20° C. until use.
(§3) The C3H10T1/2 pluripotent fibroblast cell line (ATCC CCL 226) was cultured under the conditions recommended by the ATCC in DMEM culture medium supplemented with 10% of fetal calf serum at a temperature of 37° C. under an atmosphere at 5% CO2. 24 hours after seeding, the cells were stimulated for 6 days in the presence of the compounds of general formula (I) directly diluted in the culture medium. The activation by these compounds causes differentiation of the cell line to the osteoblast lineage and enables the latter to express alkaline phosphatase. Said alkaline phosphatase is then detected by histochemistry or enzymatic assay.
The C3H10T1/2 cells were seeded onto 96-well plates at a density of 5×10^3 cells per well. The compounds were applied at increasing concentrations ranging from 10 nM to 10 μM. The plates were then incubated for 6 days and the assays were then carried out in quadruplicate according to the methods previously described (Chen et al. 2002; Frank-Kamenetsky et al. 2002).
The cells were washed in cold phosphate buffer (PBS) and then lysed by sonication at 4° C. in 50 μl of solution containing 0.9% of NaCl and 0.2% of Triton X-100. The alkaline phosphatase activity in the resulting lysates was then measured according to the method described by Pepinsky et al. (Pepinsky et al. 1998). After the addition of 100 μl of reaction buffer (200 mM Tris-HCl; pH 10.5; 0.4 M of 2-amino-2-methylpropanol and 8 mM of MgCl2) and of 50 μl of substrate (4 mM of disodium p-nitrophenyl phosphate), the lysates were incubated at 37° C. for 60 min, and then the optical density (OD) was measured at a wavelength of 415 nm. By way of comparison, the activity of the SAG compound, which activates osteogenesis by acting on the Hedgehog pathway, was tested under the same conditions. The GraphPad Prism 4° software was used to plot the curves and to determine the effective concentrations 50 (EC50).

C3H10T1/2 cells [2] = experiment: Detection of alkaline phosphatase by histochemistry (differentiation of C3H10T1/2 cells); assay type: cell-based; conditions: 10 μM, 6 days; intensities compound 4>compound 1>compound 8>compound 6; no DMSO-treated cell labeled
Protocol: as §1, §2, §3
For this experiment, the cells are cultured in 6-well plates containing a glass cover slip treated for 1H with 0.05 mg/ml poly-D-lysine. The C3H10T1/2 cells are seeded at a density of 150 000 cells per well. The compounds were applied at a concentration of 10 μM. the Sigma staining kit (85L-3R) was used according to the protocol described. Briefly, after fixing the cells for 30 seconds with a solution of citrate/acetone (2-3) and then rinsing with double-distilled water, the staining is carried out for 30 min in the presence of a solution of Fast-Violet/Naphthol in the dark. The cover slips are then rinsed thoroughly with double-distilled water and then mounted in aqueous medium before being photographed on a DMRXA2 microscope (Leica Microsystems). The cells expressing alkaline phosphatase are stained red.

[3] = C3H 10T1/2, 144 h, 6 days of stimulation, 10 nM to 10 μM, OD 415 nm, mean of 2 to 5 independent experiments, read-out: EC50 on the differentiation of C3H10T1/2 cells measured via alkaline phosphatase activity
[4] = C3H 10T1/2, 144 h, 6 days of stimulation, relative to compound 1 in the same experiment, mean of 2 to 5 independent experiments, read-out: Maximum stimulation, % of maximum activation of compound 1
[5] = dose-response curve produced in parallel with compound 1

Row | SMILES | EC50 (C3H10T1/2 cells [1]; [3]) [nM] | Emax (C3H10T1/2 cells [1]; [4]) [%] | Expression of alkaline phosphatase detected by histochemical staining (number of cells labeled) (C3H10T1/2 cells [2]) | EC50 (C3H10T1/2 cells [1]; C3H 10T1/2, 144 h, 6 days of stimulation, alkaline phosphatase activity, read-out: Affinity (activation of C3H10T1/2 cell differentiation)) [nM] | Emax (C3H10T1/2 cells [1]; C3H 10T1/2, excess over compound 1, read-out: Maximum stimulation greater than that of compound 1) [%] | Affinity compared with compound 1 (FIG. 3) (C3H10T1/2 cells [1]; [5]) | Maximum stimulation compared with compound 1 (FIG. 3) (C3H10T1/2 cells [1]; [5])
1 | CCCCCCn1c(=O)c(C(=O)Nc2ccc(C(=O)OCCC)cc2)c(O)c2ccccc21 [Compound 1, propyl 4-(1-hexyl-4-hydroxy-2-oxo-1,2-dihydroquinoline-3-carboxamido)benzoate] | 1300 | 100 | increase in the number of cells labeled |  |  |  | 
2 | CCOC(=O)c1ccc(NC(=O)c2c(O)c3ccccc3n(Cc3ccccc3)c2=O)cc1 [Compound 2, ethyl 4-(1-benzyl-4-hydroxy-2-oxo-1,2-dihydroquinoline-3-carboxamido)benzoate] | > 3000 | 4 |  |  |  |  | 
3 | CCCCCCn1c(=O)c(C(=O)Nc2ccc(C(=O)OCC)cc2)c(O)c2ccccc21 [Compound 3, ethyl 4-(1-hexyl-4-hydroxy-2-oxo-1,2-dihydroquinoline-3-carboxamido)benzoate] | 3600 | 66 |  |  |  |  | 
4 | CCCCCCn1c(=O)c(C(=O)Nc2ccc(C(=O)O)cc2)c(O)c2ccccc21 [Compound 4, 4-(1-hexyl-4-hydroxy-2-oxo-1,2-dihydroquinoline-3-carboxamido)benzoic acid] | 600 | 124 | increase in the number of cells labeled | 600 | 20 |  | 
5 | CCCCCCn1c(=O)c(C(=O)Nc2ccc(C(=O)OCCCC)cc2)c(O)c2ccccc21 [Compound 5, butyl 4-(1-hexyl-4-hydroxy-2-oxo-1,2-dihydroquinoline-3-carboxamido)benzoate] | 1500 | 91 |  |  |  |  | 
6 | CCCCCCn1c(=O)c(C(=O)Nc2ccc(C(=O)OC(C)(C)C)cc2)c(O)c2ccccc21 [Compound 6, tert-butyl 4-(1-hexyl-4-hydroxy-2-oxo-1,2-dihydroquinoline-3-carboxamido)benzoate] | 3100 | 62 | increase in the number of cells labeled |  |  |  | 
7 | CCCCCCn1c(=O)c(C(=O)Nc2ccc(C(=O)OCc3ccccc3)cc2)c(O)c2ccccc21 [Compound 7, benzyl 4-(1-hexyl-4-hydroxy-2-oxo-1,2-dihydroquinoline-3-carboxamido)benzoate] | 2000 | 47 |  |  |  |  | 
8 | CCCCCCn1c(=O)c(C(=O)Nc2ccc(C(=O)NCCCC)cc2)c(O)c2ccccc21 [Compound 8, N-(4-(butylcarbamoyl)phenyl)-1-hexyl-4-hydroxy-2-oxo-1,2-dihydroquinoline-3-carboxamide] | 5800 | 94 | increase in the number of cells labeled |  |  |  | 
9 | CCCCCCn1c(=O)c(C(=O)Nc2ccc(C(=O)OC(C)C)cc2)c(O)c2ccccc21 [Compound 9, isopropyl 4-(1-hexyl-4-hydroxy-2-oxo-1,2-dihydroquinoline-3-carboxamido)benzoate] | 6500 | 33 |  |  |  |  | 
10 | CNC1CCC(N(Cc2cccc(-c3ccncc3)c2)C(=O)c2sc3ccccc3c2Cl)CC1 (centres unmarked) [SAG, reference compound] |  |  |  |  |  | similar | lower maximum stimulation than compound 1
